Values joined by “and” are separate entries in the source; they are usually repeats but may differ in a detail not shown here. Identical values can stand only once. Counter-ions that a name gives are not always drawn. Marks after values point to notes of the source that are not given here.
Assays:
[1] = molecular target: T1, EphrinB2-EphB2 (Homo sapiens, UniProt P29323); assay: Octet tetramerization inhibition, immobilized human EphrinB2 binding to 50 nM soluble human EphB2; details: EphrinB2-EphB2
T1 construct: soluble human EphB1-His, EphB2-His, and EphB4-His ectodomains; commercially available human EphrinB1-Fc (EB1), EphrinB2-Fc (EB2), and EphrinB3-Fc (EB3) ectodomain proteins; purchased
T1 sequence (P29323 19-543 limits assumed): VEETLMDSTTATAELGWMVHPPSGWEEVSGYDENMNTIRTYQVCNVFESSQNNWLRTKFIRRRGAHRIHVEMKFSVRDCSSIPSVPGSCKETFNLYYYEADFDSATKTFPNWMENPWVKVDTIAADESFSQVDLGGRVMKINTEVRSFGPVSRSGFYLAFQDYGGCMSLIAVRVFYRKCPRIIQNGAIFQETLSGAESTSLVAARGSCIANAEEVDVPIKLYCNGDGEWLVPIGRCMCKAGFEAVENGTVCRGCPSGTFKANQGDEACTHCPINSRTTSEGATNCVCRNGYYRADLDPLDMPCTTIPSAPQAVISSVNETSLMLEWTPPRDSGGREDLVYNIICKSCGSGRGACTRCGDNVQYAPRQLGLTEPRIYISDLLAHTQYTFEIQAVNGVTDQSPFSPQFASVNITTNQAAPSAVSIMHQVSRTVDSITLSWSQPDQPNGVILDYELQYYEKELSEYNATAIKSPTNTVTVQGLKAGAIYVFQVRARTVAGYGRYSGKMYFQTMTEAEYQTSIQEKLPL

[2] = molecular target: T2, EphrinB2-EphB1 (Homo sapiens, UniProt P54762); assay: Octet 80 sec association/500 sec dissociation, immobilized human EphrinB2-Fc binding to soluble human EphB1-His; details: for EphB1 Inhibition Percent, Inhibition of Association ONLY: at 3.2 μM and 80 seconds; for EphB1 Inhibition Percent, Inhibition of Association ONLY / EphB1 Inhibition Percent, Inhibition of Association-Dissociation: immobilized human EphrinB2, 25 nM soluble human EphB1; for EphB1 Inhibition Percent, Inhibition of Association-Dissociation: at 3.2 μM and 580 seconds
T2 construct: soluble human EphB1-His, EphB2-His, and EphB4-His ectodomains; commercially available human EphrinB1-Fc (EB1), EphrinB2-Fc (EB2), and EphrinB3-Fc (EB3) ectodomain proteins; purchased
T2 sequence (P54762 18-540 limits assumed): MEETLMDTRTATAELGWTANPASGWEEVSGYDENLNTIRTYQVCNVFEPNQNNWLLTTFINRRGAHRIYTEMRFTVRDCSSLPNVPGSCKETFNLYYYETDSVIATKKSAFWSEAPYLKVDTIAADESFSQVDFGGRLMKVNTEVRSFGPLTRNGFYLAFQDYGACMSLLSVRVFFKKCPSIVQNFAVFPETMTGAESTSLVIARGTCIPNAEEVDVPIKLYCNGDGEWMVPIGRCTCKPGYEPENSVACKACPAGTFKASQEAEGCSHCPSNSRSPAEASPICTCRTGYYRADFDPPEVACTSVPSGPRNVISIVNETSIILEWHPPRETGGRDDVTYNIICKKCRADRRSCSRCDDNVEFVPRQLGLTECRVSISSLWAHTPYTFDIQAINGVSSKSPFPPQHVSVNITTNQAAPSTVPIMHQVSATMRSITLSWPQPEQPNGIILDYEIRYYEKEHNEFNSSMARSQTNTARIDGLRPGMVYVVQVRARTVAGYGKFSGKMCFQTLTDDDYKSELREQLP
Description: (§1) In another experiment, whether certain A20 analogs might have specificity for different Eph receptors was tested. An Octet RED384 system was used to obtain biophysical ON-OFF binding data (association-dissociation) for the three different human EphrinB2-EphB1, EphrinB2-EphB2, and EphrinB2-EphB4 protein-protein interactions and to assess the effect of A20 chemicals on the binding kinetics.
(§2) FIGS. 72A-72C show three example Octet sensorgram response traces for the immobilized human EphrinB2 ectodomain protein binding to soluble forms of the human EphB1, EphB2, and EphB4 ectodomain proteins, in the absence or presence of an A20 chemical (buffer conditions are always PBSTD:PBS with 0.05% Tween-20, 1% DMSO, and +/− indicated chemical). After loading EphrinB2-Fc protein to Octet AHC biosensors, washing, and obtaining stable baseline measurements in the appropriate PBSTD (either with or without indicated chemical), the sensors are placed in its buffer that also contains the indicated soluble EphB protein for the association step (0-80″), and then returned to its buffer for the dissociation step (81″-580″). In each figure (FIGS. 72A-72C), a sensorgram run using 10 μM of the 2×HCl salt form of A20-I is compared to the no compound control run to exemplify the maximum level of reduced response signal typically obtained with a potent A20 chemical.
(§3) Because the response levels during the dissociation step plateau for the EphrinB2-EphB2 and EphrinB2-EphB1 interactions by the first 80″, AUCs were also calculated for run data encompassing the first 160″ of each experiment to account for both the 80″ association data (red asterisks) and the first 80″ of dissociation data (marked by green line and asterisks).
(§4) The selectivity of another A20 analog (a 3×HCL salt form of compound BQPB4) in comparison to previously tested compound, A20-1, was tested as described in Example 27 above.
(§5) Further to the experiments listed above, a series of dose-response experiments were conducted to determine the IC50 of a selected A20 chemical (A20-1) on the kinetics of human EphrinB2 ligand ectodomain protein binding to its cognate human EphB1, EphB2, and EphB4 receptor ectodomain proteins. FIG. 74A-74C are representative sensorgrams showing the effect of 0, 0.1, 0.2, 0.4, 0.8, 1.6, and 3.2 μM, concentrations of the 2×HCl salt of A20-I along with a 10 μM max standard (also A20-1) on three different Ephrin-EphB interactions (e.g., EphB1 in FIG. 74A, EphB2 in FIG. 74B and EphB4 in FIG. 74C). […] Additional IC50 values were determined at specific timepoints, at 75″ into the association step and at 55″ into the dissociation step (135″).
(§6) All absolute and relative IC50 values are provided in the Table 6 below, where absolute are based off the full binding sensorgram traces, and relative are based off of the max control traces.
(§7) In another experiment, the % inhibition for various A20 analog chemicals against the three different EphrinB2-EphB protein interactions was determined. Specifically, the percent inhibition for immobilized human EphrinB2-Fc binding to 25 nM soluble human EphB1-His (FIG. 76A, enlarged in FIG. 76D), EphB2-His (FIG. 76B, enlarged in FIG. 76E), and EphB4-His (FIG. 76C, enlarged in FIG. 76F) with 3511-I, 8009-9255, QTM-Br, A19, A19-NO2, and IM (all at 3.2 μM) was determined.

[3] = molecular target: T1, EphrinB2-EphB2; assay: Octet 80 sec association/500 sec dissociation, immobilized human EphrinB2-Fc binding to soluble human EphB2-His; details: for EphB2 Inhibition Percent, Inhibition of Association ONLY: at 3.2 μM and 80 seconds; for EphB2 Inhibition Percent, Inhibition of Association ONLY / EphB2 Inhibition Percent, Inhibition of Association-Dissociation: immobilized human EphrinB2, 25 nM soluble human EphB2; for EphB2 Inhibition Percent, Inhibition of Association-Dissociation: at 3.2 μM and 580 seconds
Description: as §1, §2, §3, §4, §5, §6, §7

[4] = molecular target: T3, EphrinB2-EphB4 (Homo sapiens, UniProt P54760); assay: Octet 80 sec association/500 sec dissociation, immobilized human EphrinB2-Fc binding to soluble human EphB4-His; details: immobilized human EphrinB2, 25 nM soluble human EphB4; for EphB4 Inhibition Percent, Inhibition of Association ONLY: at 3.2 μM and 80 seconds; for EphB4 Inhibition Percent, Inhibition of Association-Dissociation: at 3.2 μM and 580 seconds
T3 construct: soluble human EphB1-His, EphB2-His, and EphB4-His ectodomains; commercially available human EphrinB1-Fc (EB1), EphrinB2-Fc (EB2), and EphrinB3-Fc (EB3) ectodomain proteins; purchased
T3 sequence (P54760 16-539 limits assumed): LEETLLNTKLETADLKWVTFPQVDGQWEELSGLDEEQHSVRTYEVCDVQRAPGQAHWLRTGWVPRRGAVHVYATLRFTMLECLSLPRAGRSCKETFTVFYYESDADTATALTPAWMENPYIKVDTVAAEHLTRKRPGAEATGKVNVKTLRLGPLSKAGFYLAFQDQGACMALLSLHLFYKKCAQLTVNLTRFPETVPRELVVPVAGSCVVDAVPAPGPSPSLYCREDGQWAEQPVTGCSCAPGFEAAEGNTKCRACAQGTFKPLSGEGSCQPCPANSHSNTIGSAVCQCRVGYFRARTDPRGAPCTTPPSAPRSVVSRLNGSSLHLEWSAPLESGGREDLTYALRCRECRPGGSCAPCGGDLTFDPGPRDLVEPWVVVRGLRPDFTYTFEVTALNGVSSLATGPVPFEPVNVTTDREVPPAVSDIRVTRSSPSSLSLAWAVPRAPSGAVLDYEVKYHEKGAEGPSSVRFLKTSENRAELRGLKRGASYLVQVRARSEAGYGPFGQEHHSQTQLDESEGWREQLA
Description: as §1, §2, §3, §4, §5, §6, §7

[5] = EphB2, 25 nM EphB2, 3.2 μM compound, A20-I as max control, 0* = less than 0, no inhibition, listed as A20-1.2xMSA, methanesulfonate

Structure (SMILES) | EphB1 Inhibition Percent, Inhibition of Association ONLY [2] | EphB1 Inhibition Percent, Inhibition of Association-Dissociation [2] | EphB2 Inhibition Percent, Inhibition of Association ONLY [3] | EphB2 Inhibition Percent, Inhibition of Association-Dissociation [3] | EphB4 Inhibition Percent, Inhibition of Association ONLY [4] | EphB4 Inhibition Percent, Inhibition of Association-Dissociation [4] | other results
Oc1ccc(CN2CCN(Cc3ccc(Br)cc3)CC2)c2cccnc12 [Compound 43, 5-((4-(4-bromobenzyl)piperazin-1-ium-1-yl)methyl)-8-hydroxyquinolin-1-ium chloride] | 19.9% and 33.5% | 36.5% and 47.3% | 37.8% and 62.3% | 56.3% and 75.4% |  |  | IC50 ([1]; Absolute AUC/IC50, Table A): 3090 nM and 3240 nM; IC50 ([1]; Absolute Association IC50 (300 sec), Table A): 2700 nM and 2750 nM; IC50 ([1]; Absolute Dissociation IC50 (450 sec), Table A): 2820 nM and 3010 nM; IC50 ([1]; Relative AUC/IC50, Table A, compound 7: association only): 2240 nM; IC50 ([1]; Relative Association IC50 (300 sec), Table A): 1950 nM; IC50 ([1]; Relative Dissociation IC50 (450 sec), Table A): 2340 nM and 2140 nM
Oc1ccc(CN2CCN(Cc3ccc(C(F)(F)F)cc3)CC2)c2cccnc12 [Compound 49, 8-hydroxy-5-((4-(4-(trifluoromethyl)benzyl)piperazin-1-ium-1-yl)methyl)quinolin-1-ium chloride] |  | 19.8% and 39.0% | 21.3% and 24.9% | 46.2% and 36.2% | 0*/0*% | 0% and 2.8% | 
COc1ccccc1N1CCN(Cc2cc(I)c(O)c3ncccc23)CC1 [Compound 71-A, 7-iodo-5-((4-(2-methoxyphenyl)piperazin-1-yl)methyl)quinolin-8-ol dihydrochloride] | 39.6% | 52.3% | 58.7% | 73.2% | 17.5% | 35.6% | 
Oc1ccc(CN2CCN(C3CCCC3)CC2)c2cccnc12 [Compound 83, 5-((4-cyclopentylpiperazin-1-yl)methyl)quinolin-8-ol] | 21.4% | 23.6% | 20.9% | 21.2% | 0.5% | 0.5% | 
Oc1c(I)cc(CN2CCOCC2)c2cccnc12 [Compound 89, 4-((8-hydroxy-7-iodoquinolin-1-ium-5-yl)methyl)morpholin-4-ium methanesulfonate] |  |  |  |  |  |  | % Inhibition: Association + Dissociation (160 sec) ([2]; EphB1, 25 nM EphB1, 3.2 μM compound, A20-I as max control, 0* = less than 0, no inhibition, listed as A20-1.2xMSA, methanesulfonate): 46.3%; EphB1 Inhibition Percent, Inhibition of Association ONLY ([2]; methanesulfonate): 28.4%; EphB1 Inhibition Percent, Inhibition of Association-Dissociation ([2]; methanesulfonate): 46.3%; % Inhibition: Association + Dissociation (160 sec) [3, 5]: 74.6%; % Inhibition: Association ONLY (80 sec) [3, 5]: 55.1%; EphB2 Inhibition Percent, Inhibition of Association ONLY ([3]; methanesulfonate): 55.1%; EphB2 Inhibition Percent, Inhibition of Association-Dissociation ([3]; methanesulfonate): 74.6%; EphB4 Inhibition Percent, Inhibition of Association ONLY ([4]; methanesulfonate): 1.7%; EphB4 Inhibition Percent, Inhibition of Association-Dissociation ([4]; methanesulfonate): 25.4%

Source: patent US20260374739A1, “SMALL MOLECULAR WEIGHT CHEMICAL COMPOUND TO ANTAGONIZE EPH-EPHRIN TETRAMERIZATION AND INHIBIT BIDIRECTIONAL SIGNALING” (THE BOARD OF REGENTS OF THE UNIVERSITY OF TEXAS SYSTEM, priority 2022, published 2026)
